Assay results reported in patent publication US10723716B2, “Alpha-helix mimetics as modulators of Abeta self-assembly” (New York University, priority 2016, dated 2020).
Entries after “also recorded” stand apart in the source; their conditions may differ.

Experiments:
[1] = test system: Aβ42 mediated toxicity in mouse neuroblastoma (N2a) cells; assay: Aβ42 mediated toxicity in Neuro-2a cells (MTS cell viability); assay type: cell-based; conditions: for rank order for the antagonist activity: Aβ42 mediated cytotoxicity and aggregation, 5 μM, 1:1 (FIG. 26a); for effect on Aβ42 mediated cytotoxicity: equimolar ratio, Neuro-2a cells
Method: Cell viability was determined using a CellTiter 96® AQueous One Solution Cell Proliferation Assay (MTS) kit (Promega), which measures the reduction of the tetrazolium compound MTS (3-(4,5-dimethylthiazol-2-yl)-5-(3-carboxymethoxyphenyl)-2-(4-sulfophenyl)-2H-tetrazolium, inner salt) to soluble formazan by mitochondrial dehydrogenase enzyme in living cells. Formazan can be measured at 490 nm according to the manufacturer's instructions.
Neuro-2a cells (ATCC® […]) were maintained in serum-containing media [Dulbecco's Modified Eagle's Medium—high glucose (DMEM, Sigma) supplemented with 10% foetal bovine serum (FBS), 4 mM L-Glutamine (Sigma), and 1% penicillin/streptomycin (Sigma)] in 5% CO2 at 37° C. Once the cells reached ˜95% confluence, they were split (using 0.25% trypsin-EDTA, Sigma, St. Louis, USA), seeded at a density of 5×10^3 cells/well in 100 μL complete medium in 96-well plates and cultured for 48 h. Thereafter, the media was removed, the cells washed with phosphate buffered saline (PBS), and 90 μL of serum-free DMEM was added to the wells. A solution (A) containing 50 μM Aβ42 in NaOH (pH 10.5) was prepared and kept on ice, and a solution (B) containing 50 μM of the oligopyridylamide compound, H2O (2.33 μL/well) and 1× and 10×PBS was prepared and kept at room temperature. The solutions were combined, vortexed and 10 μL of this solution immeadiatly added to each well. The final concentrations in the wells were: 5 μM Aβ42, 5 μM oligopyridylamide, 200 μM NaOH, 0.1×PBS and 0.5% (v/v) DMSO.
(§1) To investigate the toxic effect of the peptide alone on cell viability, solution (B) without the oligopyridylamide compound was mixed with solution (A), while the effect of the oligopyridylamide compound alone was determined by adding solution (A) without peptide to solution (B). The effect of oligopyridylamides on seed-catalyzed Aβ42 aggregation was probed by preparing an additional solution (C) containing 0.5 μM seeds. The volume contributed by solution (C) was taken into account in preparing solution (B). Solution (C) was mixed with solution (B), and the resulting mixture was then added to solution (A) shortly before addition to the wells. To study the effect of oligopyridylamides on the oligomeric states of Aβ42, solution (A) was mixed with solution (B) without inhibitor and incubated at room temperature for 1, 2 or 3 h. Subsequently, 50 μM oligopyridylamides was added to the mixture, which was then immediately added to the cells. After culturing for 72 h in 5% CO2 at 37° C., 20 μL of MTS reagent was added to each well. The MTS reagent was incubated for 2.5 h at 37° C., and absorbance of the soluble formazan product (λ=490 nm) of MTS reduction was measured on a Synergy H1MF Multi-Mode microplate-reader (BioTek, Winooski, Vt., USA), with a reference wavelength of 650 nm to subtract the background. Wells treated with a solution containing serum-free DMEM, 200 μM NaOH, 0.1×PBS and 0.5% (v/v) DMSO served as control. MTS reduction was determined from the ratio of the absorbance of the treated wells to the control wells. Each data point represents an average of four independent quadruplet-well trials.

Aβ42 [2] = molecular target: T1, Aβ42 (Homo sapiens, UniProt P05067); assay: ThT-based kinetic assay of Aβ42 aggregation; assay type: biochemical; conditions: for effect on Aβ42 oligomerization/fibrillation (ThT): equimolar ratio; for factor by which Aβ42 aggregation is delayed (rel. t50): 20 μM Aβ42, equimolar ratio
T1 construct: Cleavage of APP results in several Aβ isoforms; The predominant species are Aβ42 and Aβ40; purchased Anaspec (Fremont, Calif., USA)
T1 sequence (P05067 672-713 limits assumed): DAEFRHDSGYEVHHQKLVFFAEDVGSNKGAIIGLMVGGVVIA
Source text: The aggregation of Aβ42 was monitored using an established exogenous dye, Thioflavin T (ThT) that intercalates between the amyloid fibers along the perpendicular axis without affecting the kinetics of amyloid formation. (see Wolfe, L. S.; Calabrese, M. F.; Nath, A.; Blaho, D. V.; Miranker, A. D.; Xiong, Y. Proc. Natl. Acad. Sci. U.S.A. 2010, 107, 16863-16868; Levine, H. Protein Sci. 1993, 2, 404-410). A representative ThT-based kinetic assay results are depicted in FIG. 2. The oligomerization reaction of Aβ42 was initiated by diluting a 1 mM stock solution of Aβ42 (in DMSO) to a concentration of 20 μM in phosphate buffer (150 mM KCl, 50 mM NaPi, pH 7.4). Aβ42 fibrillation is a nucleation-dependent polymerization process and is characterized by a sigmoidal curve consisting of a lag phase, an elongation phase, and a plateau phase (FIG. 2a). The kinetic reaction was quantified by extracting t50, which is the time required to reach 50% of the maximum fluorescence that results from fibrillation. Under standard conditions the tso for Aβ42 fibrillation was 2.1±0.2 h (FIG. 2a and FIG. 8).
(§2) Kinetic assays were conducted on a FlexStation 3 Multi-Mode Microplate reader from Molecular Devices (Sunnyvale, Calif., USA). Experiments were conducted in triplicate in a 96-well plate with a final volume of 200 μL per well. Every measurement was an average of 50 readings. The aggregation of an amyloidogenic peptide (Aβ40, Aβ42, or IAPP) was initiated by the addition of the peptide from a stock solution (in DMSO, 0.5-1 mM) to phosphate buffer. The final concentration of each peptide was different based on their aggregation. The stoichiometry of ThT dye for each peptide was 0.5:1 (ThT:peptide). Peptide aggregation was monitored by ThT fluorescence (λex=445 nm and λem=485 nm). The blank sample contained all the components of the peptide samples except the peptide. The sample data were processed by subtracting the fluorescence of the blank sample. The fluorescence intensity data was then normalized by setting the maximum value to 1.
(§3) Kinetic assays in the presence of the compounds of the invention were conducted under the same conditions. The small molecules were added from a stock solution (1 mM or 10 mM in DMSO) to keep the final concentration of DMSO less than 1.0% (v/v). Small molecules were added to the wells with ThT and buffer and mixed gently with a pipette before adding the peptide. To keep the conditions identical, an equal amount of DMSO was added to the wells with the peptide-only control reactions.
(§4) Kinetic profiles were processed using Origin (version 9.1). Kinetic curves were fit using the built-in sigmoidal fit. Each run was fit independently to extract the t50 (time required to reach 50% of the maximum fluorescence intensity). Error bars represent standard deviations from the mean of at least three independent experiments.
In the delayed addition experiments, where the oligopyridylamides were added at various time points during Aβ amyloid reaction, the conditions were same (as used for the assays where Aβ was preincubated with the oligopyridylamides). The Aβ oligomerization process was initiated by dissolving Aβ into buffer solution and then oligopyridylamides were added to this solution at indicated time points (depend on the assay) at an equimolar ratio.

IAPP = molecular target: T2, IAPP (Homo sapiens, UniProt P10997); assay: ThT-based kinetic assay of IAPP aggregation; assay type: biochemical; conditions: equimolar ratio (IAPP 10 μM, FIG. 25c, 26c, 27m)
T2 construct: purchased Anaspec (Fremont, Calif., USA)
T2 sequence (P10997 34-70 limits assumed): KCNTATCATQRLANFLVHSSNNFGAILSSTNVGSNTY
Method: as §2, §3, §4

Neuro-2a cells = assay: Effect of compound alone on Neuro-2a cell viability; assay type: cell-based, mouse; conditions: matched cytotoxic experimental conditions, no Aβ42
Method: as §1, with “After culturing for 72 h in 5% CO2 at 37° C., 20 μL of MTS reagent was added to each well.” left out

[3] = test system: IAPP mediated toxicity in rat INS-1 cells; assay: IAPP mediated toxicity in INS-1 cells; assay type: cell-based; conditions: equimolar ratio, rat INS-1 cells
Aβ42 [4] = molecular target: T1, Aβ42; assay: ThT-based kinetic assay of Aβ42 aggregation; assay type: biochemical; conditions: 5 μM, 1:1 (Ligand:Aβ42); without ligand 100%

COC(=O)c1ccc(NC(=O)c2ccc(NC(=O)c3ccc([N+](=O)[O-])c(OCC(C)C)n3)c(OCCCN)n2)c(OCCCN)n1 [ADH-46]
rank order for the antagonist activity [1]: ADH41>ADH46>ADM-40≥ADM-45A | effect on Aβ42 mediated cytotoxicity [1]: effective at rescuing cells

COC(=O)c1ccc([N+](=O)[O-])c(OCCCN)n1 [ADH-3]
effect on Aβ42 oligomerization/fibrillation (ThT) (Aβ42 [2]): No noticeable effect

COC(=O)c1ccc(NC(=O)c2ccc(NC(=O)c3ccc([N+](=O)[O-])c(OCC(=O)O)n3)c(OCc3ccccc3)n2)c(OCC(=O)O)n1 [ADH-17]
effect on IAPP fibrillation / amyloid formation (ThT) (IAPP): completely inhibits | toxicity of compound alone to Neuro-2a cells (Neuro-2a cells): not toxic | effect on IAPP mediated toxicity [3]: completely inhibits | effect on Aβ42 oligomerization/fibrillation (ThT) (Aβ42 [2]): no effect | effect on Aβ42 mediated cytotoxicity [1]: no effect

COC(=O)c1ccc(NC(=O)c2ccc(NC(=O)c3ccc([N+](=O)[O-])c(OCc4ccccc4)n3)c(OCC(=O)O)n2)c(OCC(=O)O)n1 [ADH-27]
toxicity of compound alone to Neuro-2a cells (Neuro-2a cells): not toxic

COC(=O)c1ccc(NC(=O)c2ccc(NC(=O)c3ccc([N+](=O)[O-])c(OCCCN)n3)c(OCCCN)n2)c(OCCCN)n1 [ADH-19]
factor by which Aβ42 aggregation is delayed (rel. t50) (Aβ42 [2]): 3.2±0.3 | effect on Aβ42 oligomerization/fibrillation (ThT) (Aβ42 [2]): effective in blocking

COC(=O)c1ccc(NC(=O)c2ccc(NC(=O)c3ccc([N+](=O)[O-])c(OC(C)C)n3)c(OCc3ccccc3)n2)c(OCCCN)n1 [ADH-39]
toxicity of compound alone to Neuro-2a cells (Neuro-2a cells): not toxic | effect on Aβ42 oligomerization/fibrillation (ThT) (Aβ42 [2]): accelerated | effect on Aβ42 mediated cytotoxicity [1]: effective at inhibiting cytotoxicity; also recorded: effective at rescuing cells; also recorded: equally effective

CCCCCCOc1nc(C(=O)Nc2ccc(C(=O)Nc3ccc(C(=O)OC)nc3OCCCN)nc2OCc2ccccc2)ccc1[N+](=O)[O-] [ADH-52]
toxicity of compound alone to Neuro-2a cells (Neuro-2a cells): not toxic | effect on Aβ42 mediated cytotoxicity [1]: effective at rescuing cells

COC(=O)c1ccc(NC(=O)c2ccc(NC(=O)c3ccc([N+](=O)[O-])c(OCCCN)n3)c(OCc3ccccc3)n2)c(OCCCN)n1 [ADH-37]
ThT fluorescence intensity of the amyloid reaction (Aβ42 [4]): 74% | effect on Aβ42 oligomerization/fibrillation (ThT) (Aβ42 [2]): weak inhibitor | effect on Aβ42 mediated cytotoxicity [1]: did not have a noticeable effect

COC(=O)c1ccc(NC(=O)c2ccc([N+](=O)[O-])c(OCCCN)n2)c(OCCCN)n1 [ADH-44]
factor by which Aβ42 aggregation is delayed (rel. t50) (Aβ42 [2]): 2.4±0.3

CCCCOc1nc(C(=O)Nc2ccc(C(=O)Nc3ccc(C(=O)OC)nc3OCCCN)nc2OCCCN)ccc1[N+](=O)[O-] [ADH-40]
toxicity of compound alone to Neuro-2a cells (Neuro-2a cells): not toxic | rank order for the antagonist activity [1]: ADH41>ADH46>ADM-40≥ADM-45A

COC(=O)c1ccc(NC(=O)c2ccc([N+](=O)[O-])c(OCc3ccccc3)n2)c(OCCCN)n1 [ADH-43]
factor by which Aβ42 aggregation is delayed (rel. t50) (Aβ42 [2]): 3.3±0.4 | effect on Aβ42 oligomerization/fibrillation (ThT) (Aβ42 [2]): effective in blocking

COC(=O)c1ccc([N+](=O)[O-])c(OC2CCCCC2)n1 [ADH-5]
effect on Aβ42 oligomerization/fibrillation (ThT) (Aβ42 [2]): No noticeable effect

CCOc1nc(C(=O)Nc2ccc(C(=O)Nc3ccc(C(=O)OC)nc3OCCCN)nc2OCCCN)ccc1[N+](=O)[O-] [ADH-45A]
toxicity of compound alone to Neuro-2a cells (Neuro-2a cells): not toxic | rank order for the antagonist activity [1]: ADH41>ADH46>ADM-40≥ADM-45A
